Test system: human myeloma cell line MM.1S
Experiment: SILAC acetylated-lysine peptide profiling, HDAC inhibitor vs DMSO (light/heavy ratio)
Type: cell-based
Text: An embodiment of the invention comprises utilizing the SILAC method in order to quantitate changes in protein expression between two or more populations of cells. The SILAC method is a technique based on mass spectrometry that detects differences in protein abundance among samples using non-radioactive isotopic labeling. The SILAC method is known in the art, and described in detail in Ong et al., “Stable Isotope Labeling by Amino Acids in Cell Culture, SILAC, as a Simple and Accurate Approach to Expression Proteomics”, Molecular & Cellular Proteomics, vol. 1, pp. 376-386 (2002), which is incorporated herein by reference in its entirety.
Briefly, the SILAC method involves growing two populations of cells in cell culture. The first population of cells is grown in growth media containing normal amino acids (“normal media”). The second population of cells is grown in media lacking a standard essential amino acid (such as lysine), but is then supplemented with a non-radioactive, isotopically labeled form of that essential amino acid (such as lysine labeled with ^13C atoms, rather than normal ^12C atoms), which is called “heavy media”. When the two populations of cells are each growing in the medium, they incorporate the amino acids into all of their proteins. The growth of cells maintained in the heavy media is no different from that in normal media. All peptides containing the heavy amino acids are heavier than their normal counterparts. The cells from each of the two populations of cells are lysed. The lysates from each of the two cell populations are then combined. The combined cell lysates are then analyzed by mass spectrometry. Pairs of chemically identical peptides of different stable isotope composition can be differentiated in a mass spectrometer due to their difference in mass. The ratio of peak intensities in the mass spectrum for such peptide pairs reflects the abundance ratio for the two proteins.
This example describes SILAC studies that were performed to compare the effects of three different HDAC inhibitors (Compound A, Compound B, and tubastatin A) to a control on a human multiple myeloma cell line. The HDAC inhibitors were also compared amongst themselves to determine differences in their effects.
A human myeloma cell line MM.1S was grown using either ^12C (light) or ^13C (heavy) lysine containing culture medium. The “heavy” cells were treated with DMSO as the control, and the “light” cells were treated with a single HDAC inhibitor at 37° C. for 6 hours. The heavy and light cells were lysed, and the lysates were mixed in 1:1 ratio and digested with the protease trypsin. The acetylated lysine containing peptides (due to the action of the HDAC inhibitor) in the digested peptide pool were captured by a non-specific anti-acetylated lysine antibody cocktail (the antibodies identify both light and heavy acetylated peptides), and subjected to mass spectrometry analysis in order to identify thousands of individual peptides.
Thousands of peptides were identified in pairs (^12C and ^13C) due to their known mass differences. The amino acid sequence and quantitative ratio (Light/Heavy) of a given peptide in two differentially treated cell lysates were then determined and annotated with their possible protein (gene) sources.
As stated above, three HDAC inhibitors (Compound A, Compound B, and Tubastatin A) were used. Thus, the SILAC method was performed three times, with a different HDAC inhibitor compared to a control each time. Accordingly, there are three pairs of quantitative data in the table below, i.e., Compound A:DMSO, Compound B:DMSO, and Tubastatin A:DMSO. A cut-off of 1.30 fold of change (increase or decrease) was then used to determine “changed” or “+” in the table, and any peptides with a fold of change less than 1.3 fold were determined to be “unchanged” or “0” in the table. Those peptides that were not identified were marked as “NA” in the table. […]

O=C(NO)c1cnc(NC2(c3cccc(F)c3)CCCCC2)nc1 [Compound B, 2-((1-(3-fluorophenyl)cyclohexyl)amino)-N-hydroxypyrimidine-5-carboxamide]
L/H ratio of acetylated peptide PDPAK(ac)SAPAPK(ac)K (SEQ ID NO: 16) (HIST1H2BO [6:12], log 2 scale, drug vs DMSO): 0.66
light to heavy ratio (L/H ratio) of acetylated peptide SLNLK(ac)HIK (SEQ ID NO: 607) (HLA-B associated transcript 1 [188], gene SNORD84, DDX39B, inhibitor:DMSO): 0.00 log 2
L/H ratio of acetylated peptide K(ac)[…] (SEQ ID NO: 42) (HMGB2 [30], log 2 scale, drug vs DMSO): 0.00
L/H ratio of acetylated peptide (HMVMQK(ac)LLR (SEQ ID NO: 438), Isoform 1 of Poly(U)-binding-splicing factor PUF60 [454], PUF60): 0.71 log 2
L/H ratio of acetylated peptide RGEEGHDPK(ac)EPEQLR (SEQ ID NO: 43) (HNRNPA3 [29], log 2 scale, drug vs DMSO): 0.00
L/H ratio of acetylated peptide […](ac)WQSLK (SEQ ID NO: 44) (HNRNPM [83], log 2 scale, drug vs DMSO): 0.00
L/H ratio of acetylated peptide AAEVLNK(ac)HSLSGRPLK (SEQ ID NO: 3) (HNRNPM [134], log 2 scale, drug vs DMSO): −0.74
L/H ratio of acetylated peptide VK(ac)VLFVR (SEQ ID NO: 45) (HNRNPR [341], log 2 scale, drug vs DMSO): 0.00
L/H ratio of acetylated peptide […](ac)YSR (SEQ ID NO: 46) (HNRNPU [246], log 2 scale, drug vs DMSO): 0.00
L/H ratio of acetylated peptide TTWVTK(ac)HAAENPGK (SEQ ID NO: 47) (HNRNPU [497], log 2 scale, drug vs DMSO): 0.00
L/H ratio of acetylated peptide NK(ac)EIFLR (SEQ ID NO: 52) (HSP90B1 [97], log 2 scale, drug vs DMSO): 0.00
L/H ratio of acetylated peptide […](ac)IR (SEQ ID NO: 49) (HSP90B1 [114], log 2 scale, drug vs DMSO): 0.00
L/H ratio of acetylated peptide ETLQQHK(ac)LLK (SEQ ID NO: 50) (HSP90B1 [455], log 2 scale, drug vs DMSO): 0.00
L/H ratio of acetylated peptide IADDK(ac)YNDTFWK (SEQ ID NO: 51) (HSP90B1 [479], log 2 scale, drug vs DMSO): 0.00
L/H ratio of acetylated peptide […](ac)R (SEQ ID NO: 54) (HSPA5 [96], log 2 scale, drug vs DMSO): 0.00
L/H ratio of acetylated peptide […](ac)R (SEQ ID NO: 55) (HSPA8 [71], log 2 scale, drug vs DMSO): 0.00
L/H ratio of acetylated peptide (HSPEDPEK(ac)YSCFALFVK (SEQ ID NO: 432), Isoform 1 of DNA-dependent protein kinase catalytic subunit [700], PRKDC): −0.41 log 2
L/H ratio of acetylated peptide (HTENVAK(ac)[…] (SEQ ID NO: 384), Transcriptional repressor CTCF [436], CTCF): −0.66 log 2
light to heavy ratio (L/H ratio) of acetylated peptide […](ac)R (SEQ ID NO: 267) (Heat shock 70 kDa protein 1A/1B [71], HSPA1B, HSPA1A, drug:DMSO): 0.00 log 2
light to heavy ratio (L/H ratio), log 2 scale, acetylated peptide TEMDWVLK(ac)[…] (SEQ ID NO: 797) (Heterogeneous nuclear ribonucleoprotein F [98], gene HNRNPF, drug:DMSO): 0.00
light to heavy ratio (L/H ratio) of acetylated peptide YEK(ac)DIAAYR (SEQ ID NO: 595) (High mobility group protein B2 [157], gene HMGB2, inhibitor:DMSO): 0.00 log 2
light to heavy ratio (L/H ratio), log 2 scale, acetylated peptide K(ac)AINK(ac)AQK (SEQ ID NO: 793) (Histone H2B type 1-M [17:21], gene HIST1H2BM, drug:DMSO): 0.00
light to heavy ratio (L/H ratio) of acetylated peptide PEPAK(ac)SAPAPK(ac)K (SEQ ID NO: 309) (Histone H2B type 2-E [6:12], HIST2H2BE, drug:DMSO): 0.00 log 2
light to heavy ratio (L/H ratio) of acetylated peptide K(ac)STGGK(ac)APR (SEQ ID NO: 310) (Histone H3.2 [10:15], HIST2H3D, HIST2H3A, HIST2H3C, drug:DMSO): 0.00 log 2
light to heavy ratio (L/H ratio) of acetylated peptide GK(ac)GGK(ac)GLGK (SEQ ID NO: 311) (Histone H4 [6:9], HIST2H4B, HIST1H4C and other H4 genes, drug:DMSO): 0.00 log 2
light to heavy ratio (L/H ratio) of acetylated peptide GLGK(ac)GGAK(ac)R (SEQ ID NO: 312) (Histone H4 [13:17], HIST2H4B, HIST1H4C and other H4 genes, drug:DMSO): 0.00 log 2
light to heavy ratio (L/H ratio) of acetylated peptide GLGK(ac)GGAKR (SEQ ID NO: 313) (Histone H4 [13], HIST2H4B, HIST1H4C and other H4 genes, drug:DMSO): 0.00 log 2
light to heavy ratio (L/H ratio) of acetylated peptide DGLQNEK(ac)NIVSTPVK (SEQ ID NO: 268) (Hydroxymethylglutaryl-CoA lyase mitochondrial [48], HMGCL, drug:DMSO): 0.00 log 2
light to heavy ratio (L/H ratio) of acetylated peptide K(ac)[…] (SEQ ID NO: 594) (Hydroxymethylglutaryl-CoA lyase mitochondrial [137], gene HMGCL, inhibitor:DMSO): 0.00 log 2
L/H ratio of acetylated peptide (IAVEAQNK(ac)YER (SEQ ID NO: 457), Nucleoprotein TPR [1081], TPR): 0.63 log 2
L/H ratio of acetylated peptide (IDYGEYMDK(ac)NNVR (SEQ ID NO: 454), Single-stranded DNA-binding protein mitochondrial [122], SSBP1): −0.52 log 2
light to heavy ratio (L/H ratio) of acetylated peptide, log 2 scale (IGK(ac)[…] (SEQ ID NO: 236), Thioredoxin domain-containing protein 5 [244], TXNDC5, MUTED, MUTED-TXNDC5): 0.00

From patent US20140357512A1, “HISTONE DEACETYLASE (HDAC) BIOMARKERS IN MULTIPLE MYELOMA” (priority 2013, published 2014)
